These results are taken from patent US7528259B2, “Derivatives of 4,5,6,7-tetrabromobenzimidazole and method of their preparation” (Selvita SP. Z O. O., priority 2004, dated 2009).

One data set addresses T1, CK2 (Rattus norvegicus, UniProt P19139).
T1 construct: Native CK1 (nCK1) and CK2 (nCK2) were purified from rat liver; from tissue; host or cells: rat liver
Briefly: CK2 phosphorylation assay, kinetic determination of inhibition constant. Format: biochemical.

Data set [1] relates to human leukemia Jurkat cells. As to the kind of experiment: Caspase activation by Western blot of PARP and HS1 degradation. The following applies: 14 hours, 5 or 10 uM, FIG. 2. Format: cell-based. As to the method:
Leukemia Jurkat cells were incubated for 14 hours without the addition of 2-dimethylamino-4,5,6,7-tetrabromobenzimidazole (C), and in a medium including 5 or 10 uM of 2-dimethylamino-4,5,6,7-tetrabromobenzimidazole and 50 ng/mL of antiFas (aF), a control substance to follow the apoptosis process.
The human leukemia Jurkat T-cell line was maintained in RPMI-1640, supplemented with 10% (v/v) fetal calf serum, 2 mM L-glutamine, 100 units/ml penicillin and 100 ug/ml streptomycin. For the treatment, cells were suspended at a density of 10^6 cells/ml in a medium containing 1% (v/v) fetal calf serum, then incubated at 37° C., in the presence of the compounds at the indicated concentrations. Control cells were treated with equal amounts of solvent inhibitor was solved. At the end of incubations, cells were lysed by the addition of hypoosmotic buffer, as previously described (Sarno et al., 2003).
(§1) Cell viability was assessed by means of 3-(4,5-dimethylthiazol-2-yl)-3,5-diphenyltriazolium bromide (MTT) reagent, while caspase activation was followed by Western blot monitoring of PARP and HS1 protein degradation, as previously described (Ruzzene et al., 2002).
Background: A western blot detects proteins with antibodies after separation by electrophoresis.

The test system of a further data set is isolated mitochondria. As to the kind of experiment: Depolarization of isolated mitochondria.
For data set [2], the system named is G-CK (casein kinase from Golgi apparatus). As to the kind of experiment: Enzymatic activity of kinases, residual activity with inhibitor. It counts as biochemical, rat. The conditions noted are these: inhibitor at 10 μM; percentage activity without an inhibitor. Here is the method: (§2) Tests of enzymatic activity of kinases were carried out using methodology described by Sarno et al. 2003 and are summarized in Table 1. […] Native CK1 (nCK1) and CK2 (nCK2) were purified from rat liver (Meggio et al., 1981); Golgi CK (G-CK), purified from rat lactating mammary gland, was provided by Dr. A. M. Brunati (Padova, Italy). Protein tyrosine kinases Lyn, c-Fgr, Syk (also termed TPK-IIB) were purified from rat spleen as previously referenced (Sarno et al., 2003). Human recombinant α and β subunits of CK2 were expressed in E. coli and the holoenzyme was reconstituted and purified as previously described (Sarno et al., 1996). The […] and […] CK2 mutants were obtained as described previously (Sarno et al., 2003). […] double mutant was obtained with the “QuikChange-SiteDirected Mutagenesis” kit (Stratagene), using human […] cDNA α inserted in pT7-7 vector as template and two synthetic oligonucleotide primers, [NT] and [NT], each complementary to opposite strands of template. Expression and purification of the mutant was performed as previously described (Sarno et al., 2003).

In a further data set the test system is CK1 (casein kinase 1). The data set is described as above. Format: biochemical, rat. The conditions noted are these: inhibitor at 10 μM; percentage activity without an inhibitor. As to the method: as §2
Data set [3] relates to human leukemia Jurkat T cells. As to the kind of experiment: Cytotoxic effect, MTT viability assay. Format: cell-based. The conditions noted are these: 24 hours. Here is the method: Leukemia Jurkat cells were incubated for 24 hours in a medium of increasing concentration of 4,5,6,7-tetrabromobenzimidazole (TBB) or 2-dimethylamino-4,5,6,7-tetrabromobenzimidazole (K25). The cytotoxic effect was assessed by means of staining with a use of MTT, (3-(4,5-dimethylthiazol-2-yl)-3,5-diphenyltriazolium bromide, reagent. Control cells were incubated in a medium with added solvent (DMSO, 05% v/v). The results were calculated as mean values of three experiments. The resulting cytotoxic effect of 4,5,6,7-tetrabromo-2-dimethylaminobenzimidazole on human leukemia Jurkat T cells is presented in FIG. 1. […].
The human leukemia Jurkat T-cell line was maintained in RPMI-1640, supplemented with 10% (v/v) fetal calf serum, 2 mM L-glutamine, 100 units/ml penicillin and 100 ug/ml streptomycin. For the treatment, cells were suspended at a density of 10^6 cells/ml in a medium containing 1% (v/v) fetal calf serum, then incubated at 37° C., in the presence of the compounds at the indicated concentrations. Control cells were treated with equal amounts of solvent inhibitor was solved. […]
as §1

For the next data set, the target named is DYRK1a (Homo sapiens, UniProt Q13627). Briefly: Enzymatic activity of kinases, residual activity with inhibitor. It counts as biochemical. The following applies: inhibitor at 10 μM; percentage activity without an inhibitor. As to the method:
Tests of enzymatic activity of kinases were carried out using methodology described by Sarno et al. 2003 and are summarized in Table 1. The residual activity was determined by incubation in the presence of inhibitor at a concentration of 10 μM and expressed as percentage activity without an inhibitor.
Saccharomyces cerevisiae piD261 was provided by Dr. S. Facchin (Padova, Italy). The source of all the other protein kinases used for specificity assays is either described or referenced by Davies et al. (2000).

The mark [4] stands for this setting: CK2, competitive with respect of ATP, read-out: Inhibition constant Ki.

Like-named read-outs stand apart in the source and are kept apart here.

T1 sequence (P19139 whole entry): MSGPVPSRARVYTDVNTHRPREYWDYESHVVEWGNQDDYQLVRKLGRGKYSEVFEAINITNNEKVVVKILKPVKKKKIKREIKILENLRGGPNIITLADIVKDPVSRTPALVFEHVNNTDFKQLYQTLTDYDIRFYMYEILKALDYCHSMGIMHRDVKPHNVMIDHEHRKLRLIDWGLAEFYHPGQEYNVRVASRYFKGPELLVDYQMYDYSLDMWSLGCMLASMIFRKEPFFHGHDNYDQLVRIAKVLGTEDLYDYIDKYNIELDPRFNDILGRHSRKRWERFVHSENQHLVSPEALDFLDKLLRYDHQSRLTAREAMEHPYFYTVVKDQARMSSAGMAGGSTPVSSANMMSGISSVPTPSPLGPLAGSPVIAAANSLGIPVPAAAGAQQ
T1 sequence (P67874 2-215 partner limits assumed): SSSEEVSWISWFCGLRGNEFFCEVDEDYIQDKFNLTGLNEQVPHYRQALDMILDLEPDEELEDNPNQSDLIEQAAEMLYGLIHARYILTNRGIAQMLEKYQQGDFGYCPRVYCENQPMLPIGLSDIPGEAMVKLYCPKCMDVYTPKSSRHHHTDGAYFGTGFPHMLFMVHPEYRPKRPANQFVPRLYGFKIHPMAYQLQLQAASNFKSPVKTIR

In general, melting point refers to the temperature, or range, at which the solid turns liquid. One may read the Ki as a measure of affinity in units of concentration, obtained from inhibition or displacement. For the compound `CN(C)CCNc1nc2c(Br)c(Br)c(Br)c(Br)c2[nH]1` [2-(2-Dimethylaminoethylamino)-4,5,6,7-tetrabromo-1H-benzimidazole], the melting point was > 250 °C (dec.). The compound also showed a Ki at CK2 of 160 nM.

`CC(O)CNc1nc2c(Br)c(Br)c(Br)c(Br)c2[nH]1` (stereo not drawn) [2-(2-hydroxypropylamino)-4,5,6,7-tetrabromo-1H-benzimidazole] returned a melting point of 258 to 260 °C. In addition, the Ki on CK2 (setting [4]) came to 140 nM.

As for `OCCNc1nc2c(Br)c(Br)c(Br)c(Br)c2[nH]1` [2-Ethanolamine-4,5,6,7-tetrabromo-1H-benzimidazole], the melting point fell in the range of 216 to 218 °C. In addition, the Ki at CK2 (setting [4]) is 130 nM.

For the compound `CC(C)Nc1nc2c(Br)c(Br)c(Br)c(Br)c2[nH]1` [2-Isopropylamine-4,5,6,7-tetrabromo-1H-benzimidazole], the melting point is 288 to 290 °C (dec.). Also, the Ki on CK2 (setting [4]) came to 60 nM.

Consider `CNc1nc2c(Br)c(Br)c(Br)c(Br)c2[nH]1` [2-Methylamino-4,5,6,7-tetrabromo-1H-benzimidazole], for which the melting point is 283 to 285 °C. The Ki at CK2 (setting [4]) stood at 90 nM.

With `Nc1nc2c(Br)c(Br)c(Br)c(Br)c2[nH]1` [2-amino-4,5,6,7-tetrabromobenzimidazole, reference compound], at CK2 (setting [4]), the Ki came out at 90 nM.

For `CN(C)c1nc2c(Br)c(Br)c(Br)c(Br)c2[nH]1` [Example K25, 2-Dimethylamino-4,5,6,7-tetrabromo-1H-benzimidazole], the “Activation of caspase (degradation of HS1 and PARP)” value in data set [1] was “Activation of caspase”. For the same compound, in the data set with isolated mitochondria, the “Depolarization of isolated mitochondria” value is “does not cause depolarization”. In addition, in data set [2], the “Residual activity of G-CK” value came out at 92 percentage. The “Residual activity of CK1” value with CK1 (casein kinase 1) was 87 percentage. Besides, the “Cytotoxic effect compared with TBB” value in data set [3] (FIG. 1) is “several times higher”; in data set [3] (FIG. 1, listed as 2-dimethylamino-4,5,6,7-tetrabromobenzimidazole), “several times more active”. Further, at DYRK1a, the “Residual activity of DYRK1a” value came to 2 percentage.

In the case of `Brc1c(Br)c(Br)c2[nH]nnc2c1Br` [TBB, 4,5,6,7-tetrabromobenzotriazole, reference compound], the “Residual activity of G-CK” value in data set [2] came out at 95 percentage. In addition, the “Residual activity of CK1” value with CK1 (casein kinase 1) was found to be 91 percentage. Besides, the “Residual activity of DYRK1a” value at DYRK1a is given as 22 percentage.
